From US20050176813A1, “Novel chalcone derivatives and uses thereof” (priority 2002, published 2005)
Like-named read-outs stand apart in the source and are kept apart here.

Key:
[1] = target: T1, Kv1.3 (Homo sapiens, UniProt P22001); settings: cited from earlier work
[2] = target: T1, Kv1.3; assay: Kv1.3 channel block, estimated Kd (Table 1); type: binding
[3] = target: Kv1.5 (Homo sapiens, UniProt P22460); assay: Kv1.5 channel block, estimated Kd (Table 1); type: binding
[4] = system: human peripheral blood lymphocytes; assay: Proliferation test, [3H]-thymidine incorporation assay, anti-CD3 stimulated; type: cell-based; settings: for Antiproliferative potency compared with Example 1: FIG. 1; for EC50: Homo sapiens, Lymphocyte, anti-CD3 stimulation, 48 h, read-out: EC50, suppression of proliferation of human peripheral blood lymphocytes
Protocol: Proliferation Test [^3H]-Thymidine Incorporation Assay
Resting peripheral blood mononuclear cells from healthy volunteers were seeded at 2×10^5 cells per well in medium (RPMI 1640 supplemented 10% fetal calf serum, 2 mM glutamine, 1 mM sodium pyruvate, 1% nonessential amino acids, 100 units/ml penicillin, 100 μg/ml streptomycin and 50 μM β-mercaptoethanol) in flat-bottom 96 well plates (final volume 200 μl). Cells pre-incubated with drug (60 min), were stimulated with 5 ng/ml anti-CD3 Ab) for 48 h. [^3H]-Thymidine (1 μCi per well) was added for the last 6 h. Cells were harvested onto glass fibre filters and radioactivity measured in a scintillation counter. All experiments were done in triplicate. Results are reported as normalised for maximum [^3H]-thymidine incorporation for controls.

[5] = system: MEL cells; assay: Flow cytometric measurement of cell viability (PI uptake), MEL cells; type: cell-based; settings: 48 h
Protocol: (§1) Flow Cytometric Measurement of Cell Viability
(§2) Jurkat E6-1 and MEL were seeded at 5×10^5 cells/ml in twelve-well plates. Drug (100 nM, 1 μM, 2.5 μM and 10 μM) was added in a final DMSO concentration of 0.1%. After 48 h of incubation, cells were harvested by sucking them off the plates. Cells were centrifuged, resuspended in 0.5 ml PBS containing 1 μg/ml propidium iodide (PI), and red fluorescence measured on a FACScan flow cytometer (Becton Dickinson) after 20 min (10^4 cells of every sample being analyzed). The percentage of dead cells was determined by their PI uptake. Incubation with 20% DMSO served as a control for setting the gates of the flow cytometer for dead cells.

[6] = system: Jurkat E6-1; assay: Flow cytometric measurement of cell viability (PI uptake), Jurkat T-cells; type: cell-based; settings: 48 h
Protocol: as §1, §2

[7] = system: mice; assay: Toxicity on intravenous injection into mice; type: in vivo
[8] = Cytotoxicity in vitro (remark in Table 1, summary of Table 2); type: cell-based; settings: for Cytotoxicity in-vitro (summary of Table 2): MEL and Jurkat cells; for Cytotoxicity (remark in Table 1): cells not given
Protocol: as §2

[9] = target: Kv1.7 (Homo sapiens, UniProt Q96RP8); assay: Kv1.7 channel block, estimated Kd (Table 1); type: binding
Chain of Kv1.7 (Q96RP8 whole entry): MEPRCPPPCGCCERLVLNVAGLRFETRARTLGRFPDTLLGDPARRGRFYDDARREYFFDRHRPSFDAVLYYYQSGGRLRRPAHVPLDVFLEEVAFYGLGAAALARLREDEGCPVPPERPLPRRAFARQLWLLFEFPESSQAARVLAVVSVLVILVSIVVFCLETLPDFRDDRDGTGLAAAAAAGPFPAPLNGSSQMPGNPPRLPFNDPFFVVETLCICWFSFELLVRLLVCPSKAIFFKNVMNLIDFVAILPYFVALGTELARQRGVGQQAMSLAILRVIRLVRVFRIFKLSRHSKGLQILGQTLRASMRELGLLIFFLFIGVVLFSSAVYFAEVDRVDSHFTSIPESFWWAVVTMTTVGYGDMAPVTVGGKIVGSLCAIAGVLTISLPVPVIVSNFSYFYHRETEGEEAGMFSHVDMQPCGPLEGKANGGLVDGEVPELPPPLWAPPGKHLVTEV

[10] = target: Kv1.1 (Homo sapiens, UniProt Q09470); assay: Kv1.1 channel block, estimated Kd (Table 1); type: binding
Chain of Kv1.1 (Q09470 whole entry): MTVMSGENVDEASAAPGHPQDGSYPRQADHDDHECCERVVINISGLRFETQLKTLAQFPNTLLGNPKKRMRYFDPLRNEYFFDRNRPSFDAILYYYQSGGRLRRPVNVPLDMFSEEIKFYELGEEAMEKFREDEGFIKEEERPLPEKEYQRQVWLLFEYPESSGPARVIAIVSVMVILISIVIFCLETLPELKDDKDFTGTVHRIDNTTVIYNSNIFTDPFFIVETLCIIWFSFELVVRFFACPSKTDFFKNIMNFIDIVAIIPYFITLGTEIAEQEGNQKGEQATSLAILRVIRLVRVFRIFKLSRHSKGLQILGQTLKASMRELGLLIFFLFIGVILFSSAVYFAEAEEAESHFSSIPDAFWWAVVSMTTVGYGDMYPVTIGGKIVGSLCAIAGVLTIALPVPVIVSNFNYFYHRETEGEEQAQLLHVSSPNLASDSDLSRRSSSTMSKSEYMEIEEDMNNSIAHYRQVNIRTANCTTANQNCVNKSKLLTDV

[11] = target: IK (Homo sapiens, UniProt O15554); assay: IK channel inhibition (Table 1); type: binding; settings: at 20 μM
[12] = Kv1.3, area, read-out: Est. Kd, Kd area
[13] = Kv1.3, end, read-out: Est. Kd, Kd end
[14] = Kv1.3, peak, read-out: Est. Kd, Kd peak
[15] = Kv1.5, end, read-out: Est. Kd, Kd end
[16] = Kv1.5, peak, read-out: Est. Kd, Kd peak
[17] = injected intravenously, dose not stated
[18] = Kv1.1, area, read-out: Est. Kd, Kd area
[19] = Kv1.1, end, read-out: Est. Kd, Kd end
[20] = Kv1.1, peak, read-out: Est. Kd, Kd peak

T1 sequence (P22001 whole entry): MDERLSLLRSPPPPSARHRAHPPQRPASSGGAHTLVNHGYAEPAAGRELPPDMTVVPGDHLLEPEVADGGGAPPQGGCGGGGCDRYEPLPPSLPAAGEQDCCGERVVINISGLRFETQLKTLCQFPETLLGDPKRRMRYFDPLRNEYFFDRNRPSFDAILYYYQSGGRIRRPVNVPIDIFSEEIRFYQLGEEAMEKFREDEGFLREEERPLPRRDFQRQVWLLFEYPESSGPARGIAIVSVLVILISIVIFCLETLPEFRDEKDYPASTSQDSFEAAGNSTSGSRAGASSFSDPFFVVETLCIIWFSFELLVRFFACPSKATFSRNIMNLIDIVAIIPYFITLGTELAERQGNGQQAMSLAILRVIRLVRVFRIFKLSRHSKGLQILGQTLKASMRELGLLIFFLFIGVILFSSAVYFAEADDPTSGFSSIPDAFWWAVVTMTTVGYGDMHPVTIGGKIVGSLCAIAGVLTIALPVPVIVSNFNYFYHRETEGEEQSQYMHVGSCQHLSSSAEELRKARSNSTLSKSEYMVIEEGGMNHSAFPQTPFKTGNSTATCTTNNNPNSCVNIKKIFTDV
Chain of Kv1.5 (P22460 whole entry): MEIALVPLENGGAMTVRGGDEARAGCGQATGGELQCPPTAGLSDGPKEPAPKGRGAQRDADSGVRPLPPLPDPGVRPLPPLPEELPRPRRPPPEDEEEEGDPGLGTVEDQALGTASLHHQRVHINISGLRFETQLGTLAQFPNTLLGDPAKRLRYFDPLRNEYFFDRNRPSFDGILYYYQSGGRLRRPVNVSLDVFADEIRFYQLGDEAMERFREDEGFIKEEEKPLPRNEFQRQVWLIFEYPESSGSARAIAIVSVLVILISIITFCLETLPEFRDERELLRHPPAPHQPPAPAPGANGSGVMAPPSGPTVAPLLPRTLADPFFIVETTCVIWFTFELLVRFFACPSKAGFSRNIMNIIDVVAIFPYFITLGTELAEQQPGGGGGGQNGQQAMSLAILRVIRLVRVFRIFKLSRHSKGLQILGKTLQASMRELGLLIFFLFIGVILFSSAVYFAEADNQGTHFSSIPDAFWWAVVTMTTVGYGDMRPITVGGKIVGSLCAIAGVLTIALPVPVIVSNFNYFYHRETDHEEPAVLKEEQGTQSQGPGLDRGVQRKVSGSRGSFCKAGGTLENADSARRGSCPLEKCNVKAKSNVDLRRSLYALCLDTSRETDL

Structure (SMILES) | Kd [2, 13] [µM] | Kd [2, 14] [µM] | EC50 [4] [µM] | percentage of dead cells (PI uptake) ([5]; 100 nM) [%] | percentage of dead cells (PI uptake) ([5]; 1 μM) [%] | percentage of dead cells (PI uptake) ([5]; 2.5 μM) [%] | percentage of dead cells (PI uptake) ([5]; 10 μM) [%] | percentage of dead cells (PI uptake) ([6]; 100 nM) [%] | percentage of dead cells (PI uptake) ([6]; 1 μM) [%] | percentage of dead cells (PI uptake) ([6]; 2.5 μM) [%] | percentage of dead cells (PI uptake) ([6]; 10 μM) [%] | Cytotoxicity in-vitro (summary of Table 2) [8] | further results
COc1c(C(C)=O)c(O)c(OC)c2occc12 [khellinone] |  |  |  |  |  |  |  |  |  |  |  |  | Blocking activity on the Kv1.3 channel [1]: blocking activity
COc1cccc(/C=C/C(=O)c2c(O)c(OC)c3occc3c2OC)c1 (single isomer, unassigned) [Example 24] | 0.25 to 0.3 | 0.9 to 1.1 | 1 | 3.53 | 3.73 | 5.26 | 3.00 | 2.41 | 2.81 | 2.31 | 9.8 | non-cytotoxic | Kd [2, 12]: 0.8 µM; Kd [3, 15]: 6 µM; Kd [3, 16]: 36 µM; Antiproliferative potency compared with Example 1 [4]: even more potently antiproliferative; Toxicity in mice [7, 17]: non-toxic
COc1c(C(=O)/C=C/c2cc(Br)cs2)c(O)c(OC)c2occc12 [Example 54] | 0.25 | 4 |  |  |  |  |  |  |  |  |  |  | Cytotoxicity (remark in Table 1) [8]: Cytotoxic Mp 139 Brown needles
COc1c2occc2cc2ccc(=O)oc12 [8-Methoxypsoralen] |  |  |  |  |  |  |  |  |  |  |  |  | Blocking activity on the Kv1.3 channel ([1]; background): blocking activity
COc1c(C(=O)/C=C/c2cccs2)c(O)c(OC)c2occc12 [Example 53] | 0.3 | 1.75 |  |  |  |  |  |  |  |  |  |  | Cytotoxicity (remark in Table 1) [8]: Cytotoxic Mp 129 Red needles
COc1c(C(=O)/C=C/c2cccc(O)c2)c(O)c(OC)c2occc12 [Example 18] | 0.25 | 5 | 0.5 | 6.89 | 3.60 | 6.98 | 4.41 | 2.57 | 2.22 | 2.59 | 4.70 | non-cytotoxic | Kd [2, 12]: 0.7 µM; Kd ([9]; Kv1.7, time-independent, read-out: Est. Kd): 50 µM; Kd [10, 18]: 1.7 µM; Kd [10, 19]: 1 µM; Kd [10, 20]: 15 µM; Kd [3, 15]: 10 µM; Kd [3, 16]: 16 µM; Antiproliferative potency compared with Example 1 [4]: even more potently antiproliferative; Toxicity in mice [7, 17]: non-toxic
COc1c(C(=O)/C=C/c2ccccc2)c(O)c(OC)c2occc12 [Example 1] | 0.12 | 0.75 | 1 | 4.95 | 6.21 | 6.70 | 5.88 | 3.02 | 1.47 | 1.78 | 8.10 | non-cytotoxic | Kd ([2]; T-lymphocytes, read-out: Kd (dissociation constant), block of Kv1.3 voltage gated potassium channel in T-lymphocytes): 0.4 µM; Block phasic or not ([9]; Kv1.7): phasic; Kd ([9]; Kv1.7, end, read-out: Est. Kd, Kd end): 5 µM; Kd ([9]; Kv1.7, peak, read-out: Est. Kd, Kd peak): 25 µM; Kd [10, 18]: 1.2 µM; Kd [10, 19]: 0.7 µM; Kd [10, 20]: 12 µM; Selectivity over Kv1.5 ([3]; Kv1.3 over Kv1.5): Cinnamon needles. Selectivity over Kv1.5 is 25-fold. Mp 125-126; IK inhibition [11]: no inhibition; Toxicity in mice ([7]; 30 uM injected intravenously): non-toxic
